How the values were obtained:
PDE10 from pig striatum = molecular target: T1, PDE10 from pig striatum (Sus scrofa, UniProt A0A287B941); assay: Inhibition of PDE10 from pig striatum; type: biochemical; conditions: 0.1 μM [3H]-cAMP, 37° C., 30 minutes
T1 construct: "Striatum from male hybrid pigs (150 kg)"
Procedure: Phosphodiesterase isoenzyme 10 (PDE10) activity was determined in preparations of human recombinant PDE10A and PDE10 from pig striatum, respectively.
Striatum from male hybrid pigs (150 kg) were collected and frozen at −70° C.
At the day of preparation 0.5 g striatum was homogenised in 10 ml 50 mM Tris/Mg-buffer at 4° C. and centrifuged for one hour at 100000 g.
Nonspecific activity was tested without the enzyme. […] For determination of IC50 values the Hill-plot, 2-parameter-model, was used.
Phosphodiesterase isoenzyme 10 (PDE10) activity was determined in preparations of rat, pig and guinea pig striatum respectively. Striatum from male Wistar rats (180-200 g), male hybrid pigs (150 kg) and male guinea pigs (CRL (HA), 500 g) respectively were collected and frozen at −70° C.
For the enzymatic testing of PDE10 activity 0.5 g of the isolated and frozen striatum was homogenised in 10 ml 50 mM Tris/Mg-buffer at 4° C. and centrifuged for one hour at 100000 g.

MK-801-induced psychosis = assay: MK-801-induced psychosis: hyperactivity and stereotyped sniffing; type: in vivo; conditions: p.o.; female Wistar rats; MK-801 0.1 mg/kg i.p. 10 min before test; compound 30 min prior; recorded 1 h
Procedure: Female Wistar rats (Crl: (WI) BR, Charles River, Sulzfeld, Germany) weighing 150 to 180 g were used for the MK-801-induced psychosis. Animals were housed under standard conditions in groups of five on a 12 h light/dark cycle (light on at 0600 h) with ad libitum access to food (Pellets, ssniff M/R 15, Spezialdiät GmbH, Soest/Westfalen) and water.
MK-801 (dizocilpine, MW 337.37) was obtained by Tocris, distributed by Biotrend Chemikalien GmbH, Köln, Germany.
Hydroxyethylcellulose was solved in distilled water.
MK-801 was solved in saline so that an administration volume of 0.5 ml/100 g was reached. The suspensions and solution were placed on a magnetic stirrer before and during dosing procedures.
The behaviour induced by the NMDA antagonist MK-801 is generally accepted as a rat model of psychosis. MK-801 induces stereotyped sniffing, hyperactivity and ataxia in rats after intraperitoneal administration.
Locomotor activity of the rats was recorded by the MotiTest Apparatus (TSE, Bad Homburg, Germany). The test area consisted of a squared arena (45×45 cm) with protective plexiglass walls (20 cm of height) where rats could freely move. Horizontal movements were recorded by 32 infrared photocells arranged along the bottom of each wall of the arena. The activity [sec] was measured by the computer program “ActiMot” (TSE, Bad Homburg, Germany).
Stereotyped sniffing was scored by the experimenter every five minutes for one hour (12 intervals) according to the method described by Andine et al. (1999). The scores of the 12 intervals were summed up at the end of the recording time.
The day of experiment the female rats were placed in the laboratory and received the test compound or vehicle at the appropriate time prior to test. MK-801 0.1 mg/kg was intraperitoneally administered 10 minutes prior to test.
At the beginning of the test the rats were placed in the centre of the squared arena of the MotiTest apparatus. Behaviour of the rats was recorded for one hour. After each run animals were removed and the boxes thoroughly cleaned and dried.
Results were analysed by one way analysis of variance (ANOVA). Tukey test was used for individual comparison. P<0.05 was regarded as significant.

`CCc1nc(C)c2n1-c1nc(OC)ccc1NC2` [Example 93a, 1-ethyl-8-methoxy-3-methyl-4,5-dihydro-imidazo[1,5-a]pyrido[3,2-e]pyrazine] showed a melting point of 139 to 142 °C.
Compound “4-difluoromethoxy-3-methyl-1-propyl-imidazo[1,5-a]pyrido[3,2-e]pyrazine-8-ol [Example 59a]” has an IC50 (PDE10 from pig striatum) of 11 nM.
In the case of `CCc1nc(C)c2c(Br)nc3ccc(O)nc3n12` [Intermediate A26], the IC50 (PDE10 from pig striatum) is reported as 46 nM and the melting point is reported as greater than 360 °C.
Work on “1-hexyl-8-methoxy-3-methyl-4-methylsulfonylamino-imidazo[1,5-a]pyrido[3,2-e]pyrazine [Example 79a]” yielded an IC50 (PDE10 from pig striatum) of 11 nM.
In the case of “3,4-dimethyl-8-methoxy-1-(3,3,3-trifluoropropyl)-imidazo[1,5-a]pyrido[3,2-e]pyrazine [Example 42a]”, the IC50 (PDE10 from pig striatum) is reported as 59 nM.
For “3,4-dimethyl-8-methoxy-1-pentyl-imidazo[1,5-a]pyrido[3,2-e]pyrazine [Example 43a]”, the IC50 (PDE10 from pig striatum) was 35 nM.
`COc1ccc2nc(Cl)c3c(C)nc(C4CCCCC4)n3c2n1` [Intermediate A4] showed an IC50 (PDE10 from pig striatum) of 2 nM and a melting point of 211 to 213 °C.
Work on “4-azido-8-methoxy-3-methyl-1-propyl-imidazo[1,5-a]pyrido[3,2-e]pyrazine [Example 31a]” yielded an IC50 (PDE10 from pig striatum) of 171 nM.
“8-difluoromethoxy-3,4-dimethyl-1-propyl-imidazo[1,5-a]pyrido[3,2-e]pyrazine [Example 54a]” gave an IC50 (PDE10 from pig striatum) of 18 nM.
With “4-isopropylsulfonylamino-8-methoxy-3-methyl-1-propyl-imidazo[1,5-a]pyrido[3,2-e]pyrazine [Example 75a]” the IC50 (PDE10 from pig striatum) was 78 nM.
“8-methoxy-3-methyl-1-phenethyl-4-methylsulfonylamino-imidazo[1,5-a]pyrido[3,2-e]pyrazine [Example 80a]” gave an IC50 (PDE10 from pig striatum) of 37 nM.
“8-methoxy-3-methyl-4-(3-methyl-ureido)-1-propyl-imidazo[1,5-a]pyrido[3,2-e]pyrazine [Example 66a]” showed an IC50 (PDE10 from pig striatum) of 752 nM.
In the case of “1-cyclohexyl-3,4-dimethyl-8-methoxy-imidazo[1,5-a]pyrido[3,2-e]pyrazine [Example 44a]”, the IC50 (PDE10 from pig striatum) is reported as 3 nM.
“3,4-dimethyl-8-methoxy-1-(2-chlorophenyl)-imidazo[1,5-a]pyrido[3,2-e]pyrazine [Example 49a]” showed an IC50 (PDE10 from pig striatum) of 1 nM.
For `COc1ccc2nc(Cl)c3c(C)nc(-c4ccccc4)n3c2n1` [Intermediate A9], the IC50 (PDE10 from pig striatum) was 4 nM and the melting point was 240 to 242 °C.
“8-methoxy-4-(methoxycarbonyl-methyl-amino)-3-methyl-1-propyl-imidazo[1,5-a]pyrido[3,2-e]pyrazine [Example 65a]” gave an IC50 (PDE10 from pig striatum) of 559 nM.
“8-methoxy-3-methyl-5-oxo-1-propyl-imidazo[1,5-a]pyrido[3,2-e]pyrazine [Example 60a]” gave an IC50 (PDE10 from pig striatum) of 23 nM.
`CCc1nc(C)cn1-c1ccc2nc(C)c3c(C)nc(CC)n3c2n1` [Example 57a] gave an IC50 (PDE10 from pig striatum) of 11 nM and a melting point of 73 to 75 °C.
`CCCCCc1nc(C)c2c(Cl)nc3ccc(OC)nc3n12` [Intermediate A6] gave an IC50 (PDE10 from pig striatum) of 56 nM and a melting point of 110.5 to 113 °C.
“1-propyl-3,4-dimethyl-imidazo[1,5-a]pyrido[3,2-e]pyrazine [Example 52a]” showed an IC50 (PDE10 from pig striatum) of 53 nM.
Work on “4-chloro-3-methyl-1-propyl-imidazo[1,5-a]pyrido[3,2-e]pyrazin-8-ol [Intermediate A25]” yielded an IC50 (PDE10 from pig striatum) of 63 nM.
Compound `CCCc1nc(C)c2c(Cl)nc3ccc(C)nc3n12` [Intermediate A19] has an IC50 (PDE10 from pig striatum) of 9 nM and a melting point of 99 to 101 °C.
In the case of `CCCc1nc(C)c2c(Cl)nc3cccnc3n12` [Intermediate A12], the IC50 (PDE10 from pig striatum) is reported as 38 nM and the melting point is reported as 138 to 140 °C.
`CCc1nc(C)cn1-c1ccc2nc(Cl)c3c(C)nc(CC)n3c2n1` [Intermediate A23] gave an IC50 (PDE10 from pig striatum) of 3 nM and a melting point of 138 to 141 °C.
Compound “8-methoxy-3-methyl-4-(3-isopropyl-ureido)-1-propyl-imidazo[1,5-a]pyrido[3,2-e]pyrazine [Example 68a]” has an IC50 (PDE10 from pig striatum) of 141 nM.
In the case of `CCCc1ncc2c(C)nc3ccc(OC)nc3n12` [Example 53a], the IC50 (PDE10 from pig striatum) is reported as 43 nM.
Compound `COc1ccc2nc(Cl)c3c(C)nc(CCC(F)(F)F)n3c2n1` [Intermediate A7] has an IC50 (PDE10 from pig striatum) of 34 nM and a melting point of 149 to 153 °C.
Work on `CCCc1ncc2c(Cl)nc3ccc(OC)nc3n12` [Intermediate A13] yielded an IC50 (PDE10 from pig striatum) of 53 nM and a melting point of 153 to 155 °C.
Compound “4-amino-1-hexyl-8-methoxy-3-methyl-imidazo[1,5-a]pyrido[3,2-e]pyrazine [Example 7b]” has an IC50 (PDE10 from pig striatum) of 48 nM.
`CCCc1nc(C)cn1-c1ccc2nc(Cl)c3c(C)nc(CCC)n3c2n1` [Intermediate A24] showed an IC50 (PDE10 from pig striatum) of 2 nM and a melting point of 134 to 136 °C.
In the case of “8-difluoromethoxy-3-methyl-4-methylsulfonylamino-1-propyl-imidazo[1,5-a]pyrido[3,2-e]pyrazine [Example 87a]”, the IC50 (PDE10 from pig striatum) is reported as 15 nM.
For “8-methoxy-3-methyl-1-propyl-4-ureido-imidazo[1,5-a]pyrido[3,2-e]pyrazine [Example 67a]”, the IC50 (PDE10 from pig striatum) was 83 nM.
In the case of `CCCc1nc(C)c2c(Cl)nc3ccc(N4CCCCC4)nc3n12` [Intermediate A21], the IC50 (PDE10 from pig striatum) is reported as 5 nM.
Compound `CCCc1nc(C)cn1-c1ccc2nc(N)c3c(C)nc(CCC)n3c2n1` [Example 6b, 4-amino-3-methyl-1-propyll-8-(2-propyl-4-methyl-imidazol-1-yl)-imidazo[1,5-a]pyrido[3,2-e]pyrazine] has an IC50 (PDE10 from pig striatum) of 1 nM and a melting point of 215 to 221 °C.
Work on `COc1ccc2nc(Cl)c3cnc(C(C)C)n3c2n1` [Intermediate A14] yielded an IC50 (PDE10 from pig striatum) of 128 nM and a melting point of 162 to 164 °C.
Work on “4-amino-8-methoxy-3-methyl-1-phenethyl-imidazo[1,5-a]pyrido[3,2-e]pyrazine [Example 9b]” yielded an IC50 (PDE10 from pig striatum) of 38 nM.
“4-chloro-8-difluoromethoxy-3-methyl-1-propyl-imidazo[1,5-a]pyrido[3,2-e]pyrazine [Intermediate A28]” gave an IC50 (PDE10 from pig striatum) of 8 nM.
With “4-amino-1-(2-chloro-phenyl)-8-methoxy-3-methyl-imidazo[1,5-a]pyrido[3,2-e]pyrazine [Example 11b]” the IC50 (PDE10 from pig striatum) was 0.5 nM, the “dose that significantly reversed MK-801-induced hyperactivity” value (MK-801-induced psychosis) was no less than 0.5 mg/kg and the “dose that significantly reversed MK-801-induced stereotyped sniffing” value (MK-801-induced psychosis) was no less than 0.5 mg/kg.
Work on “3-methyl-4-methylsulfonylamino-1-propyl-imidazo[1,5-a]pyrido[3,2-e]pyrazin-8-ol [Example 86a]” yielded an IC50 (PDE10 from pig striatum) of 23 nM.
With “3,4-dimethyl-8-methoxy-1-phenyl-imidazo[1,5-a]pyrido[3,2-e]pyrazine dihydrochloride [Example 48a]” the IC50 (PDE10 from pig striatum) was 7 nM.
In the case of “4-amino-8-methoxy-3-methyl-1-propyl-imidazo[1,5-a]pyrido[3,2-e]pyrazine [Example 1b]”, the “dose that significantly reversed MK-801-induced hyperactivity” value (MK-801-induced psychosis) is reported as no less than 10 mg/kg and the “dose that significantly reversed MK-801-induced stereotyped sniffing” value (MK-801-induced psychosis) is reported as no less than 10 mg/kg.
Work on “8-methoxy-3-methyl-1-propyl-4-trifluoromethylsulfonylamino-imidazo[1,5-a]pyrido[3,2-e]pyrazine [Example 73a]” yielded an IC50 (PDE10 from pig striatum) of 19 nM.
Work on `CCc1nc(C)c2c(Cl)nc3ccc(N(CC)CC)nc3n12` [Intermediate A20] yielded an IC50 (PDE10 from pig striatum) of 11 nM and a melting point of 145 to 150 °C.
With “4-amino-1-(4-fluoro-phenyl)-8-methoxy-3-methyl-imidazo[1,5-a]pyrido[3,2-e]pyrazine [Example 12b]” the IC50 (PDE10 from pig striatum) was 6 nM.
Compound `CCCCCCc1nc(C)c2c(Cl)nc3ccc(OC)nc3n12` [Intermediate A5] has an IC50 (PDE10 from pig striatum) of 71 nM and a melting point of 115 to 117 °C.
Compound `CCc1nc(C)c2c(Cl)nc3ccc(N4CCN(C)CC4)nc3n12` [Intermediate A22] has an IC50 (PDE10 from pig striatum) of 52 nM and a melting point of 283 to 285 °C.
“4-ethylsulfonylamino-8-methoxy-3-methyl-1-propyl-imidazo[1,5-a]pyrido[3,2-e]pyrazine [Example 71a]” showed an IC50 (PDE10 from pig striatum) of 126 nM.
“3,4-dimethyl-1-hexyl-8-methoxy-imidazo[1,5-a]pyrido[3,2-e]pyrazine [Example 45a]” showed an IC50 (PDE10 from pig striatum) of 53 nM.

Source: patent publication US20090143392A1, “Methods of Treating Obesity and Metabolic Disorders” (ELBION GMBH, priority 2007, published 2009)
